Experimental data: patent publication US20260159519A1, “IMIDAZOPYRIDAZINE SUBSTITUTED BENZENE RING DERIVATIVE, PREPARATION METHOD, PHARMACEUTICAL COMPOSITION AND USE” (SHANGHAI SIMR BIOTECHNOLOGY CO., LTD., priority 2022, published 2026)
Like-named read-outs stand apart in the source and are kept apart here.

Columns and labels:
[1] = target: T1, human α1-GABAA receptor (α1-GABAAR-HEK293 cells) (Homo sapiens, UniProt P14867+P18507); assay: Whole-cell patch-clamp electrophysiology, positive allosteric modulatory activity on α1-GABAA receptor; format: cell-based; settings: read-out: α1-GABAA positive allosteric modulatory activity
T1 construct: expressed in transfected cells
Description: (§1) α subunit, β subunit, and γ subunit are essential for the formation of a complete and functional GABAA receptor. In this example of the present disclosure, HEK293 cells stably expressing the human α1-GABAA receptor (α1-GABAAR) and α2-GABAA receptor (α2-GABAAR) were constructed and separately selected using the lipofection method (Felgner, P. L., et al. Proceedings of the National Academy of Sciences, 1987, 84: 7413-7417). The α1-GABAAR-HEK293 cell model simultaneously expressed the α1 subunit (for protein sequence, see GenBank accession No.: NM_000806.5), the […] (for protein sequence, see GenBank accession No.: NM_000814.5), and the […] (for protein sequence, see GenBank accession No.: NM_000816.3). The α2-GABAAR-HEK293 cell model simultaneously expressed the α2 subunit (for protein sequence, see GenBank accession No.: NM_000807.4), the β3 subunit (for protein sequence, see GenBank accession No.: NM_000814.5), and the γ2 subunit (for protein sequence, see GenBank accession No.: NM_000816.3).
(§2) The above cell lines were subcultured. The α2-GABAAR-HEK293 cells were expanded for testing the affinity of compounds to the benzodiazepine (BZD) site of the GABAA receptor. During the passage process, some of the α1-GABAAR-HEK293 cells and α2-GABAAR-HEK293 cells were suspended and plated on a slide pre-treated with Poly-D-Lysine for electrophysiological testing (method referenced from patent CN107344936A, paragraph 0586).
(§3) The positive regulatory activity of the test drugs on the α1-GABAA receptor and the α2-GABAA receptor was detected by the electrophysiological method. The specific method was as follows:
(§4) Compound concentration setting: The final concentration of the compounds used for screening was 100 nM. For cell lines expressing the α1-GABAA receptor, the concentration of GABA was 0.05 to 0.07 μM (approximately EC2-4). For cell lines expressing the α2-GABAA receptor, the concentration of GABA was 0.10 to 0.11 μM (approximately EC7-8). Electrophysiological testing was performed using the whole-cell patch-clamp technique, which can refer to the method reported in the literature (Nickolls, S. A., et al. British Journal of Pharmacology, 2018, 175: 708-725). The composition of the extracellular solution (ECS) for electrophysiology was as follows: 150 mM NaCl, 5 mM KCl, 2.5 mM CaCl2, 1 mM MgCl2, 10 mM HEPES, and 10 mM glucose (pH 7.4). The formulation of the intracellular solution (ICS) for electrophysiology was as follows: 140 mM CsCl, 11 mM EGTA, 10 mM HEPES, 2 mM CaCl2, 1 mM MgCl2, 4 mM MgATP, and 2 mM TEA (pH 7.3). GABA (γ-aminobutyric acid) powder was prepared into a mother liquor with pure water, which was then diluted in ECS. The compound was first prepared into a 4 mM mother liquor with dimethyl sulfoxide, which was then gradually diluted in the corresponding concentration of GABA-ECS. The solutions were freshly prepared prior to electrophysiological testing.
(§5) Electrophysiological signal acquisition was performed using an EPC 10 amplifier and PatchMaster software (HEKA) or an Axon 700B amplifier and Clampex software (AXON). The recording electrode was made through a drawing process using borosilicate glass, with an electrode resistance of 4 to 6 MΩ. Extracellular administration was performed using the ALA-VC-8PG™ system. A single, independently growing cell was selected. After the glass electrode formed a good seal with the cell, the membrane was ruptured to form the whole-cell configuration. The cell membrane potential was clamped at −60 mV and recorded in Gap-free mode. During the test, the extracellular solution was first applied extracellularly for approximately 20 seconds. After the baseline (Iprebaseline) stabilized, the extracellular solution was switched to GABA-ECS. At this point, the current induced by GABA (Igaba) could be detected. After approximately 10 to 20 seconds, when the current stabilized, the extracellular solution was switched to a mixture of the compound and GABA-ECS. […]

[2] = target: T2, human α2-GABAA receptor (BZD site, membrane protein of HEK293 cells) (Homo sapiens, UniProt P18507+P47869); assay: Radioligand competitive binding assay (3H-flunitrazepam) at the BZD site of the α2-GABAA receptor
T2 construct: expressed in transfected cells
Description: as §1, §2
The affinity of the compounds for the α2-GABAA receptor was determined by competing for the binding of ^3H-flunitrazepam (isotope ^3H-labelled flunitrazepam) to the BZD site on the membrane protein of HEK293 cells stably expressing the human α2-GABAAR.
Membrane preparation: Cells were suspended in 50 mM Tris-HCl buffer (pH=7.4), homogenized 10 times for 20 seconds with a homogenizer on ice, and centrifuged at 1000 g for 10 minutes at 4° C. The supernatant was taken, and the above steps were repeated. The supernatant was centrifuged at 4° C. (33800 g; Thermo, rotor: A27-8×50) for 60 minutes. The precipitate was resuspended in Tris buffer (50 mM Tris-HCl, 10 mM MgCl2, 0.5 mM EDTA, and 10% glycerol). The protein content was determined (BCA (bicinchoninic acid) protein quantification assay based on copper ion reduction, with a BCA kit purchased from Pierce (Annoron (Beijing) Biotechnology Co., Ltd.)), and 1 mL aliquots were prepared and stored at −80° C.
Radioligand competitive binding assay: This assay was performed in a 200 μL system (96-well plate) containing 100 μL of cell membrane. The concentration of ^3H-flunitrazepam was 1 nM, and the concentrations of the test compounds were in the range of […]. Flumazenil was used as a control. 1 μL of 2 mM flumazenil (final […]) was added to each low signal control (low control, LC) well, and 1 μL of dimethyl sulfoxide was added to each high signal control (high control, HC) well. The final concentration of target membrane protein was […]. All sample stock solutions of test compounds were 10 mM dimethyl sulfoxide solutions. All the samples were diluted to a concentration of 0.2 mM with dimethyl sulfoxide, and then subjected to a 4-fold serial dilution for a total of 8 working concentration gradients. The 96-well plate was sealed with a sealing membrane and then incubated on a shaker at room temperature for 1 hour. Meanwhile, a GF/C filter plate was soaked in plate soaking buffer (0.3% PEI (polyethyleneimine, purchased from Sigma-Aldrich, model: P314), stored at 4° C.) for at least 0.5 hours. After the binding incubation was completed, the cells were harvested onto the GF/C filter plate using a cell harvester and washed four times with plate washing buffer (50 mM Tris-HCl, pH 7.4, stored at 4° C.). After drying in an oven at 50° C. for 1 hour, the dried GF/C filter plate was bottom-sealed. The residual radioactivity on the filter membrane was detected by liquid scintillation counting.

[3] = target: T3, human α2-GABAA receptor (α2-GABAAR-HEK293 cells) (Homo sapiens, UniProt P18507+P47869); assay: Whole-cell patch-clamp electrophysiology, positive allosteric modulatory activity on α2-GABAA receptor; format: cell-based; settings: read-out: α2-GABAA positive allosteric modulatory activity
T3 construct: expressed in transfected cells
Description: as §1, §2, §3, §4, §5

[4] = competition with 1 nM 3H-flunitrazepam, Ki calculated from IC50, read-out: α2 Ki

SMILES	activation at 0.1 µM [1] [%]	Ki [2, 4] [nM]	activation at 0.1 µM [3] [%]	Ki [2] [nM]	Ki ([2]; read-out: α2 Ki, competition with 1 nM 3H-flunitrazepam, Ki calculated from IC50) [nM]
CCn1cnc2c(-c3ccc(F)c(-c4ccc5c(nnn5C5CC5)c4OC)c3)cnnc21 [Example 70, 4-(3-(1-Cyclopropyl-4-methoxy-1H-benzo[d][1,2,3]triazol-5-yl)-4-fluorophenyl)-7-ethyl-7H-imidazo[4,5-c]pyridazine]	-27	0.5	90		
CCn1cnc2c(-c3ccc(F)c(-c4cc5c(cc4OC)N(C)C(=O)C(COC)O5)c3)cnnc21 (single isomer, unassigned) [Example 162]	42	14.5	114		
CCn1cc2cc(-c3cc(-c4cnnc5c4ncn5CC)ccc3F)c(OC)cc2n1 [Example 130, 7-Ethyl-4-(3-(2-ethyl-6-methoxy-2H-indazol-5-yl)-4-fluorophenyl)-7H-imidazo[4,5-c]pyridazine]	36	4.8	139		
CCn1cnc2c(-c3ccc(F)c(-c4cc5oc(=O)n(CC6CC6)c5cc4OC)c3)cnnc21 [Example 34, 3-(Cyclopropylmethyl)-6-(5-(7-ethyl-7H-imidazo[4,5-c]pyridazin-4-yl)-2-fluorophenyl)-5-methoxybenzo[d]oxazol-2(3H)-one]	70	5.71	124		
CCn1cnc2c(-c3ccc(F)c(-c4cc5cn(C6CN(C)C6)nc5cc4OC)c3)cnnc21 [Example 117]	37	15.2	86		
CCn1cnc2c(-c3ccc(F)c(-c4ccc5c(nnn5CC)c4COC)c3)cnnc21 [Example 11, 7-Ethyl-4-(3-(1-ethyl-4-(methoxymethyl)-1H-benzo[d][1,2,3]triazol-5-yl)-4-fluorophenyl)-7H-imidazo[4,5-c]pyridazine]	75	16.4	97		
CCn1cnc2c(-c3ccc(F)c(-c4cc5oc(C)nc5cc4OC)c3)cnnc21 [Example 133, 6-(5-(7-Ethyl-7H-imidazo[4,5-c]pyridazin-4-yl)-2-fluorophenyl)-5-methoxy-2-methylbenzo[d]oxazole]	16	12.7	130		
CCn1cnc2c(-c3ccc(F)c(-c4cc5c(cc4OC)ncn5C4COC4)c3)cnnc21 (single isomer, unassigned) [Example 135, 7-Ethyl-4-(4-fluoro-3-(5-methoxy-1-(oxetan-3-yl)-1H-benzo[d]imidazol-6-yl)phenyl)-7H-imidazo[4,5-c]pyridazine]	68	28.2	142		
CCn1cnc2c(-c3ccc(F)c(-c4cc5cn(-c6ccccc6)nc5cc4OC)c3)cnnc21 [Example 101, 7-Ethyl-4-(4-fluoro-3-(6-methoxy-2-phenyl-2H-indazol-5-yl)phenyl)-7H-imidazo[4,5-c]pyridazine]	56	4.46	157		
COc1cc2nn(C)cc2cc1-c1cc(-c2cnnc3c2ncn3C(C)C)ccc1F [Example 49, 4-(4-Fluoro-3-(6-methoxy-2-methyl-2H-indazol-5-yl)phenyl)-7-isopropyl-7H-imidazo[4,5-c]pyridazine]	58	9.16	94		
CCn1cnc2c(-c3ccc(F)c(-c4cc5cn(C6CCN(C)CC6)nc5cc4OC)c3)cnnc21 [Example 99, 7-Ethyl-4-(4-fluoro-3-(6-methoxy-2-(1-methylpiperidin-4-yl)-2H-indazol-5-yl)phenyl)-7H-imidazo[4,5-c]pyridazine]	-2	4.31	106		
CCn1cnc2c(-c3ccc(F)c(-c4cc5c(cc4OC)N(CCN(C)C)C(=O)CO5)c3)cnnc21 [Example 22, 4-(2-(Dimethylamino)ethyl)-7-(5-(7-ethyl-7H-imidazo[4,5-c]pyridazin-4-yl)-2-fluorophenyl)-6-methoxy-2H-benzo[b][1,4]oxazin-3(4H)-one]	53		115	10	
CCn1cnc2c(-c3ccc(F)c(-c4cc5oc(=O)n(C6CC6)c5cc4OC)c3)cnnc21 [Example 51, 3-Cyclopropyl-6-(5-(7-ethyl-7H-imidazo[4,5-c]pyridazin-4-yl)-2-fluorophenyl)-5-methoxybenzo[d]oxazol-2(3H)-one]	14	3.44	90		
CCn1cnc2c(-c3ccc(F)c(-c4cc5cn(C6CCN(C)CC6F)nc5cc4OC)c3)cnnc21 (stereo not drawn) [Example 76, 7-Ethyl-4-(4-fluoro-3-(2-(3-fluoro-1-methylpiperidin-4-yl)-6-methoxy-2H-indazol-5-yl)phenyl)-7H-[4,5-c]pyridazine]	61	2.43	107		
CCn1cnc2c(-c3ccc(F)c(-c4cc5c(cc4OC)N(CCN4CCOCC4)C(=O)CO5)c3)cnnc21 [Example 18, 7-(5-(7-Ethyl-7H-imidazo[4,5-c]pyridazin-4-yl)-2-fluorophenyl)-6-methoxy-4-(2-morpholinoethyl)-2H-benzo[b][1,4]oxazin-3(4H)-one]	30		106		13.9
